Reference: patent US9540348B2, “Imidazole-1-yl pyrimidine derivatives, or pharmacutically acceptable salt thereof, and pharmaceutic composition comprising the same as an active ingredient” (Industry-University Cooperation Foundation Hanyang …, priority 2015, dated 2017)
“Also recorded” adds a separate entry of the source.

How the values were obtained:
[1] = system: U937 human leukemic monocyte lymphoma cell line; assay: Antiproliferative activity to U937 human leukemic monocyte lymphoma cell line; assay type: cell-based
Protocol: The antiproliferative activity of the compounds of Examples to A375P human melanoma cell line and U937 human leukemic monocyte lymphoma cell line are evaluated and listed in the following Table 1.

ERK1 = ERK1 (Homo sapiens, UniProt P27361); assay: Kinase panel screening; assay type: biochemical; settings: 10 μM concentration; read-out: Inhibition Rate (Unit: %) ERK1
ERK1, sequence (P27361 whole entry, species assumed): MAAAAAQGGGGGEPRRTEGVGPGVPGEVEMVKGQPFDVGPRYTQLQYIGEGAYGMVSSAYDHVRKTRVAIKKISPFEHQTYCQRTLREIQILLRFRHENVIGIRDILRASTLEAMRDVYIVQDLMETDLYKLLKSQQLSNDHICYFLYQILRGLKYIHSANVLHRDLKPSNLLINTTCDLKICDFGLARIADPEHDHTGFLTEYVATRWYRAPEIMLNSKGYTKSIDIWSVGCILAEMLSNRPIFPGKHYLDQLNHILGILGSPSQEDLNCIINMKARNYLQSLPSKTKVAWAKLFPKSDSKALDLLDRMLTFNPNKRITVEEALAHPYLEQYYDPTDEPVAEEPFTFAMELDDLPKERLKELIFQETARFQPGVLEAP
Protocol: (§1) To Compound 10c of Example 23, kinase panel screening was carried out to 32 kinds of kinases in 10 μM concentration and the results are listed in the following Table 2.

P38a/MAPK14 = P38a/MAPK14 (Homo sapiens, UniProt Q16539); assay: Kinase panel screening; assay type: biochemical; settings: 10 μM concentration; read-out: Inhibition Rate (Unit: %) P38a/MAPK14
P38a/MAPK14, sequence (Q16539 whole entry): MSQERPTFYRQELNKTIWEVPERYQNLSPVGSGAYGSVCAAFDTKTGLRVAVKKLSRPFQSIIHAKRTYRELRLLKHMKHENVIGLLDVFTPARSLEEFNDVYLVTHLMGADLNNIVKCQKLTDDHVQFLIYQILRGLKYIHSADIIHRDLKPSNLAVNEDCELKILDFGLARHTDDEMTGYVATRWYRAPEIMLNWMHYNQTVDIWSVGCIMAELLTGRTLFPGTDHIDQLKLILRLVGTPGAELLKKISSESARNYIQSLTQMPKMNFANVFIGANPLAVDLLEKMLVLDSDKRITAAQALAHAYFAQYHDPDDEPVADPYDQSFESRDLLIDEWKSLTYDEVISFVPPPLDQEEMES
Protocol: as §1

ALK = ALK (Homo sapiens, UniProt Q9UM73); assay: Kinase panel screening; assay type: biochemical; settings: 10 μM concentration; read-out: Inhibition Rate (Unit: %) ALK
ALK, sequence (Q9UM73 19-1620, species assumed): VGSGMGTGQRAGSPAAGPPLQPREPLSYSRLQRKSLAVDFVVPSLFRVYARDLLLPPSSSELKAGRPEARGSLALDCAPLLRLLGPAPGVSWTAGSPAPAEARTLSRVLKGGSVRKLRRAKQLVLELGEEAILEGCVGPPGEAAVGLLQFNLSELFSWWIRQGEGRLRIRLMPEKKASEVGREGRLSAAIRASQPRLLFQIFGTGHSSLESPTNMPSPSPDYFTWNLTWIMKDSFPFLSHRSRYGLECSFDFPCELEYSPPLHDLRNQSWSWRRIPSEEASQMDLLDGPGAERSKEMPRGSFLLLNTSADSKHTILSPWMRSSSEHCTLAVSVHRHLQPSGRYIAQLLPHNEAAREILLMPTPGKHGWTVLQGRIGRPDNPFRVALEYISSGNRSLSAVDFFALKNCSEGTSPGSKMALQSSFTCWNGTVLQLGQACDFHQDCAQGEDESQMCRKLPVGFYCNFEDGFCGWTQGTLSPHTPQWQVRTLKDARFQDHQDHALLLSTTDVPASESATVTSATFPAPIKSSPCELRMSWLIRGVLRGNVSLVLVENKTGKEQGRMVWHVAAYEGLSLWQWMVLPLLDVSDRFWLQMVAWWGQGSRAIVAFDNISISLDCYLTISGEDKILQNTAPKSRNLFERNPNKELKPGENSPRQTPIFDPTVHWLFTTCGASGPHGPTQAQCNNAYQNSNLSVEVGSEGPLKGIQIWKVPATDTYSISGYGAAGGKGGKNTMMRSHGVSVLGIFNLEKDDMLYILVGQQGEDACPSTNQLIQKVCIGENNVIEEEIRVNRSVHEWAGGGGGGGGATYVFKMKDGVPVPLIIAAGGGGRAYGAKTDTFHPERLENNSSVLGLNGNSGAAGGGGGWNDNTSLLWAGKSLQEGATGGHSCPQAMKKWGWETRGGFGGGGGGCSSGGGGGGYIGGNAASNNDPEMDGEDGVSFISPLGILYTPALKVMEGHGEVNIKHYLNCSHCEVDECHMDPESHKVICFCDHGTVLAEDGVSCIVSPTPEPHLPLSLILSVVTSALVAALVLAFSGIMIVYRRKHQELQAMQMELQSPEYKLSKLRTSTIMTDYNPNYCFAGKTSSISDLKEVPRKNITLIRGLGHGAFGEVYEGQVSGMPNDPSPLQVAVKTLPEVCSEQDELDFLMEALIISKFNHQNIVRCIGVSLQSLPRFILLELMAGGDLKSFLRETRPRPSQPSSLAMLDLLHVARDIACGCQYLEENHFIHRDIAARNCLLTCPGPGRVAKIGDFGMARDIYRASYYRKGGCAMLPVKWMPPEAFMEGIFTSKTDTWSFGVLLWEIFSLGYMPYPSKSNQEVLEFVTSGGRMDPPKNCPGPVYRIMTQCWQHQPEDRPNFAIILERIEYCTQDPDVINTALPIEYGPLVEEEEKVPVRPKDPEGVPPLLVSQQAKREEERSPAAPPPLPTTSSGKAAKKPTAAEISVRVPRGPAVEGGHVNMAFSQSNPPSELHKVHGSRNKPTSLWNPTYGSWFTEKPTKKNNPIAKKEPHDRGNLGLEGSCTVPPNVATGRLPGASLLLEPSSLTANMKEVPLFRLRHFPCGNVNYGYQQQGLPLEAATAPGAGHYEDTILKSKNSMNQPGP
Protocol: as §1

ROS/ROS1 = ROS/ROS1 (Homo sapiens, UniProt P08922); assay: Kinase panel screening; assay type: biochemical; settings: 10 μM concentration; read-out: Inhibition Rate (Unit: %) ROS/ROS1
Protocol: as §1

JNK3 = JNK3 (Homo sapiens, UniProt P53779); assay: Kinase panel screening; assay type: biochemical; settings: 10 μM concentration; read-out: Inhibition Rate (Unit: %) JNK3
JNK3, sequence (P53779 whole entry, species assumed): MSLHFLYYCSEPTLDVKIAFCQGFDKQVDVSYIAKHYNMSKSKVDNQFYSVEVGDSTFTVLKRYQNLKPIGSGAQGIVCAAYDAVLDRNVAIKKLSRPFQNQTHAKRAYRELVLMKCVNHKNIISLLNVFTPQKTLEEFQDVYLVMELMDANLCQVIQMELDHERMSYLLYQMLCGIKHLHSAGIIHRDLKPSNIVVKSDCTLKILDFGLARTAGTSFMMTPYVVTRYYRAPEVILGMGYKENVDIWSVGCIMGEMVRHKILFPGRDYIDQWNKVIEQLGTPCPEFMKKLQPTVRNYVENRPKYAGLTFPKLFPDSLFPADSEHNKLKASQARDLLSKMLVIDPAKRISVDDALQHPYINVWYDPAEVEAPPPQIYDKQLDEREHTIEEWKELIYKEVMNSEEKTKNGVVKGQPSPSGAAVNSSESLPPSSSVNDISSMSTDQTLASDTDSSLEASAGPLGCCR
Protocol: as §1

JAK3 = JAK3 (Homo sapiens, UniProt P52333); assay: Kinase panel screening; assay type: biochemical; settings: 10 μM concentration; read-out: Inhibition Rate (Unit: %) JAK3
Protocol: as §1

FAK/PTK2 = FAK/PTK2 (Homo sapiens, UniProt Q05397); assay: Kinase panel screening; assay type: biochemical; settings: 10 μM concentration; read-out: Inhibition Rate (Unit: %) FAK/PTK2
FAK/PTK2, sequence (Q05397 whole entry): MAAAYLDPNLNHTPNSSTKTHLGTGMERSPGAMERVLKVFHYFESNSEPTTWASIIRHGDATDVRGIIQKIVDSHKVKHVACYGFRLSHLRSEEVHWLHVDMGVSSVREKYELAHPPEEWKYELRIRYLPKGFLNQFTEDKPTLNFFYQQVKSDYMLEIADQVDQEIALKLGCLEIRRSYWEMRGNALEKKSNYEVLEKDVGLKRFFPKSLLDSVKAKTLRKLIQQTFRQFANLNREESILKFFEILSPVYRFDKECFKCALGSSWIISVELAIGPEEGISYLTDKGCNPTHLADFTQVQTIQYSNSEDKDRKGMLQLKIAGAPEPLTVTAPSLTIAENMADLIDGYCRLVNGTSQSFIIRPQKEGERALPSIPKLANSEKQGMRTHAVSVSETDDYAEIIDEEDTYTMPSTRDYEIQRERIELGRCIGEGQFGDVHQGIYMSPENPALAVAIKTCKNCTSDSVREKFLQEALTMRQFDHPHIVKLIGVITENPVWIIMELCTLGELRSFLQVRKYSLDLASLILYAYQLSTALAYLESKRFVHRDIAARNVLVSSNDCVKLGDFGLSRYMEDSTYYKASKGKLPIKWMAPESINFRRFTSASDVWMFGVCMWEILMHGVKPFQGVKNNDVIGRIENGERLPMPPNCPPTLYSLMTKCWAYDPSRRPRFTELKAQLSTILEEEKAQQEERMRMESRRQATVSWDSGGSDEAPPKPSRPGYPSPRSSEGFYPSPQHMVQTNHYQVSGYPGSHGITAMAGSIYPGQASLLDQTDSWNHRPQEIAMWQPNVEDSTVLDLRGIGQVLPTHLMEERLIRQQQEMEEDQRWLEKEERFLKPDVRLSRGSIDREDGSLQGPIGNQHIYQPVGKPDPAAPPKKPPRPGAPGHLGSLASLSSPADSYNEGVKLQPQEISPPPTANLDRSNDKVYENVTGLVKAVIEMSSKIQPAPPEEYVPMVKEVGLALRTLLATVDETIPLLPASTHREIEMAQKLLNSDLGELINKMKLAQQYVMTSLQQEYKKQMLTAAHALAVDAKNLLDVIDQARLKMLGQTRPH
Protocol: as §1

LYN = LYN (Homo sapiens, UniProt P07948); assay: Kinase panel screening; assay type: biochemical; settings: 10 μM concentration; read-out: Inhibition Rate (Unit: %) LYN
LYN, sequence (P07948 whole entry, species assumed): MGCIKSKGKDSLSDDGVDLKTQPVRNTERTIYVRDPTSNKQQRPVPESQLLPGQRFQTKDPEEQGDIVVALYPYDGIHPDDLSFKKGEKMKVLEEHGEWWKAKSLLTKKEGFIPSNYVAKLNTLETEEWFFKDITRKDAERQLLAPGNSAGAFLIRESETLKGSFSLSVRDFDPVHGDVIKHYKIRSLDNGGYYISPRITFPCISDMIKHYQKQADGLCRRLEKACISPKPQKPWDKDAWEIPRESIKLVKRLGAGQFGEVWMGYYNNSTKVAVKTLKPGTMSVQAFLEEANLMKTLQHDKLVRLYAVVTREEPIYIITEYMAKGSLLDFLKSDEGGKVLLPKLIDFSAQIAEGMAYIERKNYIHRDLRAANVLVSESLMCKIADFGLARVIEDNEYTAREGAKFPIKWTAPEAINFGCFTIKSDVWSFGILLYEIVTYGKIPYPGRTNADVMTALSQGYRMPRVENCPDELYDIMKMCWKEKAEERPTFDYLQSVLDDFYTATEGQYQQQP
Protocol: as §1

- GI50 ([1]; U-937, U937 human leukemic monocyte lymphoma cell line, read-out: U937 (GI50, Unit: μM)): 2.73 µM
- inhibition at 10 µM (ERK1): 0%
- inhibition at 10 µM (P38a/MAPK14): 94.3%
- inhibition at 10 µM (ALK): 4.9%
- inhibition at 10 µM (ROS/ROS1): 0.73%
- inhibition at 10 µM (JNK3): 0%
- inhibition at 10 µM (JAK3): 0%
- inhibition at 10 µM (FAK/PTK2): 1.2%
- inhibition at 10 µM (LYN): 8.1%
Compound: C[C@H](O)CNc1nccc(-n2ccnc2Cc2cccc(NC(=O)Nc3ccc(C(F)(F)F)c(Cl)c3)c2)n1 [Example 23, (S)-1-(3-chloro-4-(trifluoromethyl)phenyl)-3-(3-((1-(2-((2-hydroxypropyl)amino)pyrimidin-4-yl)-1H-imidazol-2-yl)methyl)phenyl)urea]
- potency against U937, in words ([1]; U937 cell line, comparison with Sorafenib): large potencies; also recorded: better potencies than Sorafenib
